Key:
[1] = target: Human immunodeficiency virus type 1 protease (Human immunodeficiency virus 1, UniProt Q72874); test: Inhibition of HIV-1 protease.
[2] = target: Human immunodeficiency virus type 1 protease (Human immunodeficiency virus 1) (UniProt Q72874); test: In vitro inhibition of HIV-1 protease, activity expressed as CIC95 in whole cell assay.

| Compound | IC50 [1] [nM] | IC95 [2] [nM] |
| --- | --- | --- |
| O=C(N[C@H]1c2ccccc2C[C@H]1O)[C@H](Cc1ccccc1)C[C@H](O)Cc1ccccc1O | 1600 |  |
| CC(C)(C)NC(=O)[C@@H]1CNCCN1C[C@@H](O)C[C@@H](Cc1ccccc1)C(=O)N[C@H]1c2ccccc2C[C@H]1O | 38 | 3000 |
| CC(C)(C)NC(=O)c1ccccc1C[C@@H](O)C[C@@H](Cc1ccccc1)C(=O)N[C@H]1c2ccccc2C[C@H]1O | 4.7 | 800 |
| CS(=O)(=O)c1ccccc1C[C@@H](O)C[C@@H](Cc1ccccc1)C(=O)N[C@H]1c2ccccc2C[C@H]1O | 314 |  |
| COc1ccccc1C[C@@H](O)C[C@@H](Cc1ccccc1)C(=O)N[C@H]1c2ccccc2C[C@H]1O | 80 |  |
| COc1ccc(C[C@@H](O)C[C@@H](Cc2ccccc2)C(=O)N[C@H]2c3ccccc3C[C@H]2O)c(OC)c1 | 105 |  |
| NS(=O)(=O)c1ccccc1C[C@@H](O)C[C@@H](Cc1ccccc1)C(=O)N[C@H]1c2ccccc2C[C@H]1O | 290 |  |
| COc1cc(Oc2ccccc2)ccc1C[C@@H](O)C[C@@H](Cc1ccccc1)C(=O)N[C@H]1c2ccccc2C[C@H]1O | 45 |  |
| Cc1ccc(C[C@@H](O)C[C@@H](Cc2ccccc2)C(=O)N[C@H]2c3ccccc3C[C@H]2O)c(C(=O)NC(C)(C)C)c1 | 1.7 | 400 |
| COCOc1ccccc1C[C@@H](O)C[C@@H](Cc1ccccc1)C(=O)N[C@H]1c2ccccc2C[C@H]1O | 276 |  |
| O=C(N[C@H]1c2ccccc2C[C@H]1O)[C@H](Cc1ccccc1)C[C@H](O)Cc1ccccc1 | 1200 |  |
| CC(C)COc1ccccc1C[C@@H](O)C[C@@H](Cc1ccccc1)C(=O)N[C@H]1c2ccccc2C[C@H]1O | 97 |  |
| CSc1ccccc1C[C@@H](O)C[C@@H](Cc1ccccc1)C(=O)N[C@H]1c2ccccc2C[C@H]1O | 95 |  |
| CC(C)(C)NC(=O)[C@@H]1CCCCN1C[C@@H](O)C[C@@H](Cc1ccccc1)C(=O)N[C@H]1c2ccccc2C[C@H]1O | 80 |  |
| CC(C)(C)NS(=O)(=O)c1ccccc1C[C@@H](O)C[C@@H](Cc1ccccc1)C(=O)N[C@H]1c2ccccc2C[C@H]1O | 6 |  |

Source: ChEMBL document CHEMBL1150540, “Aromatic P1 replacements for the highly potent HIV-1 protease inhibitor CRIXIVAN” (Bioorg Med Chem Lett, 1996)
